Measurements from patent publication US20230114207A1, “THE COMBINATION OF CYCLIN DEPENDENT KINASE 7 INHIBITOR AND IMMUNOTHERAPY FOR TREATMENT OF CANCER” (Dana-Farber Cancer Institute, Inc., priority 2019, published 2023).

Assays:
[1] = In vivo toxicity evaluation in C57BL/6 mice
Protocol: For evaluation of in vivo toxicity of YKL-5-124, a dose-escalating study from 2.5 mg/kg to 15 mg/kg q.d. five times/week via intraperitoneal injection (i.p.) was tested in C57BL/6 mice. In vivo toxicities including body weight and blood cell counts including platelet, red blood cells and white blood cells were monitored. Similarly, a separate cohort was used to evaluate in vivo toxicity of combining YKL-5-124 and anti-PD-1 in C57BL/6 mice. For treatment studies, mice were evaluated by MRI imaging (Preclinical Imaging Laboratory, NYULH) to quantify lung tumor burden before for randomization and after drug treatment for efficacy evaluation. Mice were treated with either vehicle and isotype IgG (Control), anti-PD-1 200 μg/mouse (clone 29F.1A12), YKL-5-124 10 mg/kg, or combined anti-PD-1 and YKL-5-124 (Combo). YKL-5-124 was administered daily from Monday to Friday, and PD-1 antibody was administered three times a week (Monday, Wednesday, and Friday). For chemotherapy, cisplatin (5 mg/kg) was given on Day 1 and etoposide (10 mg/kg) on Day 1, 2, 3 every seven days per cycle for three cycles.

[2] = tested on: TNFα, CXCL9 and CXCL10 in BALF; assay: Luminex analysis of murine BAL fluid; format: in vivo, mouse; conditions: after 7-day treatment
Protocol: Mouse lung bronchoalveolar lavage (BAL) was performed by intratracheal injection of 2 ml of sterile PBS followed by collection by aspiration. TNFα, CXCL9 and CXCL10 levels were measured using mouse Cytokine/Chemokine 32-plex Assay (MILLIPLEX, Millipore) on Luminex® SD system (Luminex). Concentrations (pg/ml) of each protein were derived from 5-parameter curve fitting models according to the manufacturer's instructions.

Question: With `C=CC(=O)Nc1ccc(C(=O)Nc2n[nH]c3c2CN(C(=O)N[C@H](CN(C)C)c2ccccc2)C3(C)C)cc1` [YKL-5-124] as the molecule, how does the well tolerated dose ([1]; C57BL/6, mouse, in vivo, ip) read?
Answer: up to 10 mg/kg

Question: What about the “body weight and blood counts” value ([1]; dose up to 10 mg/kg) of the same molecule?
Answer: no significant change

Question: What about the “TNFα, CXCL9 and CXCL10 in BALF” value [2] of the same molecule?
Answer: pronounced increase
